Measurements as given in patent US8710178B2, “Macrocyclic cysteine protease inhibitors and compositions thereof” (Lincoln University, priority 2006, dated 2014).
Like-named read-outs stand apart in the source and are kept apart here.

How the values were obtained:
calpain I (μ calpain) = target: T1, calpain I (μ calpain) (Homo sapiens, UniProt P07384); experiment: BODIPY-casein fluorescence-based enzyme assay, calpain I; assay type: biochemical; settings: BODIPY-casein substrate
T1 sequence (P07384 1-714): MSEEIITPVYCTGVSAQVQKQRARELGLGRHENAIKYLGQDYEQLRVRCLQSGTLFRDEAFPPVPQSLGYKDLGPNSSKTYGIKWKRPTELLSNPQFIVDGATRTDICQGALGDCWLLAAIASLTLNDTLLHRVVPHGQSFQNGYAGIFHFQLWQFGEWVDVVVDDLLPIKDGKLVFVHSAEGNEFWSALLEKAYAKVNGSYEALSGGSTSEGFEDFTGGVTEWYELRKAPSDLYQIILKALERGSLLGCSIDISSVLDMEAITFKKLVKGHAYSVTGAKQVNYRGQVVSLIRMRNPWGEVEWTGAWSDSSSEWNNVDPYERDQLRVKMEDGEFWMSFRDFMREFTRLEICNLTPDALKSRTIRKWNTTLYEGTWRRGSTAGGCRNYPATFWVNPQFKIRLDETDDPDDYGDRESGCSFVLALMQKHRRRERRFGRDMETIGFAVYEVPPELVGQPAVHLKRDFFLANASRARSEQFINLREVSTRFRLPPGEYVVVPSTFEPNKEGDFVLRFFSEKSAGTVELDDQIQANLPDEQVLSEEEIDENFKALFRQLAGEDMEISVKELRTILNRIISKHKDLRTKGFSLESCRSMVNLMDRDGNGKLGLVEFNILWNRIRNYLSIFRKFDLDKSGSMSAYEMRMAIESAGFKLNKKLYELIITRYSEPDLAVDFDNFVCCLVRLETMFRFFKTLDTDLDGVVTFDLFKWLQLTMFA
T1 sequence (P04632 1-268 partner): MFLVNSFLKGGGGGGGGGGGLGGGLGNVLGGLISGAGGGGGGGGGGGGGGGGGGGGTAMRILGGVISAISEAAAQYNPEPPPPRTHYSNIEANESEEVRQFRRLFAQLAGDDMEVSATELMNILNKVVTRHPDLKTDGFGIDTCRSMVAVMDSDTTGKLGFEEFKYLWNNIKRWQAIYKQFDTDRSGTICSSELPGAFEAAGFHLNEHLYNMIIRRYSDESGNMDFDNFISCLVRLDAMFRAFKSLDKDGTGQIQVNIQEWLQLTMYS

calpain II (m calpain) = target: T2, calpain II (m calpain) (Homo sapiens, UniProt P17655); experiment: BODIPY-casein fluorescence-based enzyme assay, calpain II / m-calpain; assay type: biochemical; settings: BODIPY-casein substrate
T2 sequence (P17655 1-700): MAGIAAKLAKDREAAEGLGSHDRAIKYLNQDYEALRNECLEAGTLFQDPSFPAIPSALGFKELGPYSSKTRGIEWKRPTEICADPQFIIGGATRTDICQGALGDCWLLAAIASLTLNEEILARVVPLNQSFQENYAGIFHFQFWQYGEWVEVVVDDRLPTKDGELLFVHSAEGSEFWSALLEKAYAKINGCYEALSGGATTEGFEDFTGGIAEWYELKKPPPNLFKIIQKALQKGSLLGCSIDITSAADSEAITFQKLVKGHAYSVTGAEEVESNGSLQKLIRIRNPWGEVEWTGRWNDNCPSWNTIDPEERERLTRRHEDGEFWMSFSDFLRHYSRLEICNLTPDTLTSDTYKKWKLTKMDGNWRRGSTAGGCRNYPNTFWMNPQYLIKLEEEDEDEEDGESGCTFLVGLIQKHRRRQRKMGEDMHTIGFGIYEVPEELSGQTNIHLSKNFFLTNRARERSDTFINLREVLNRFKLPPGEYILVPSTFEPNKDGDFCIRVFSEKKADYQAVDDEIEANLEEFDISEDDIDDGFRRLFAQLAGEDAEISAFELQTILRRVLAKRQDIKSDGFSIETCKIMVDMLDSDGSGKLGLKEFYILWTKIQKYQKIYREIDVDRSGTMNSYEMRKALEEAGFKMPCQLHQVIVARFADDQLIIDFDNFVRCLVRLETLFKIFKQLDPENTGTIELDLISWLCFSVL
T2 sequence (P04632 1-268 partner): T1 sequence (P04632 1-268 partner)
Experimental: (§1) The inhibitors were assayed against several enzymes using a BODIPY-casein substrate in the fluorescence-based assay procedure of V. F. Thompson, S. Saldana, J. Cong and D. E. Goll, Anal. Biochem. 2000, 279, 170.
A number of the compounds were assayed against m-calpain using a BODIPY-casein substrate in the fluorescence-based assay procedure of V. F. Thompson, S. Saldana, J. Cong and D. E. Goll, Anal. Biochem. 2000, 279, 170.

cathepsin B = cathepsin B (Homo sapiens, UniProt P07858); experiment: BODIPY-casein fluorescence-based enzyme assay, cathepsin B; assay type: biochemical; settings: BODIPY-casein substrate
α-chymotrypsin = α-chymotrypsin (Bos taurus, UniProt P00766); experiment: BODIPY-casein fluorescence-based enzyme assay, α-chymotrypsin; assay type: biochemical; settings: BODIPY-casein substrate
papain = target: T3, papain (Carica papaya, UniProt P00784); experiment: BODIPY-casein fluorescence-based enzyme assay, papain; assay type: biochemical; settings: BODIPY-casein substrate
T3 sequence (P00784 134-345): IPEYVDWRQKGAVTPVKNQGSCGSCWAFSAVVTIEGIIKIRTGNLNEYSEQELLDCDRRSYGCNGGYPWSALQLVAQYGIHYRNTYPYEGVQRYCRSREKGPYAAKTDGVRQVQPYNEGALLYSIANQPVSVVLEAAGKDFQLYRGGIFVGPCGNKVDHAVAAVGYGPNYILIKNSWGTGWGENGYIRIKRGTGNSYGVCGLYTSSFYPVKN
Experimental: as §1

[1] = test system: lambs genetically predisposed to cataracts; experiment: Cataract progression in lambs genetically predisposed to cataracts; settings: for cataract progression in both eyes versus placebo-treated lambs: 1% ointment (25 mg) twice daily for three months, p=0.066 (compound 9), p=0.26 (compound 8); for cataract progression, treated right eye versus left eye: 1% ointment (25 mg) twice daily to right eye for three months, slit-lamp microscope
Experimental: A flock of 63 lambs genetically predisposed to cataracts were split into three equal groups. […] A placebo ointment (25 mg) was applied twice daily to the right eye of the final group of 21 lambs for three months starting when they were three to four months old.
The progression of cataracts was determined by a veterinary ophthalmologist with a slit-lamp microscope.

eye of a lamb = experiment: Eye irritation test of ointment in a lamb; assay type: in vivo; settings: ointment (50 mg) comprising 1% of compound, one eye of a lamb, three times in one day
[2] = Table 2, read-out: IC50 calpain II (m calpain)
[3] = Table 3, read-out: IC50 against m-calpain

Compound | IC50 (calpain I (μ calpain)) [nM] | IC50 (calpain II (m calpain); [2]) [nM] | IC50 (calpain II (m calpain); [3]) [nM] | IC50 (cathepsin B) [nM] | IC50 (α-chymotrypsin) [nM] | IC50 (papain) [nM] | cataract progression in both eyes versus placebo-treated lambs [1] | cataract progression, treated right eye versus left eye [1] | sign of irritation (eye of a lamb) | slowing of cortical cataract progression ([1]; over a 12 week period, flock of lambs genetically predisposed to cataracts) [%] | signs of toxicity ([1]; over a 12 week period, lambs)
CC(C)C[C@@H]1NC(=O)[C@@H](NC(=O)OCc2ccccc2)Cc2ccc(cc2)OCCCC[C@@H](CO)NC1=O [Compound 8] | 1750 | 700 | 700 | 290 | > 50000 | > 50000 | significantly slower | did not show significantly slower cataract progression | – | – | –
CC(C)C[C@@H]1NC(=O)[C@@H](NC(=O)OCc2ccccc2)Cc2ccc(cc2)OCCCCC[C@@H](CO)NC1=O [Compound 27] | 1340 | 1100 | 1340 | 1100 | > 50000 | > 50000 | – | – | – | – | –
CC(C)C[C@@H]1NC(=O)[C@@H](NC(=O)OCc2ccccc2)Cc2ccc(cc2)OCCCC[C@@H](C=O)NC1=O [Compound 9] | 223 | 30 | 30 | 70 | > 50000 | > 50000 | significantly slower | did not show significantly slower cataract progression | No sign of irritation | 30 | no signs of toxicity
CC(C)C[C@@H]1NC(=O)[C@@H](NC(=O)OCc2ccccc2)Cc2ccc(cc2)OCCCCC[C@@H](C=O)NC1=O [Compound 28] | 170 | 180 | 180 | 770 | > 50000 | > 50000 | – | – | – | – | –
